# Several values for one entry are separate records, joined by “and”; a condition that tells them apart may be missing. Equal entries are not always repeated. Where two headings read alike, the source gives them in different places.
# Experiments:
# S. aureus DNA gyrase = target: T1, S. aureus DNA gyrase (Staphylococcus aureus, UniProt P20831); experiment: DNA gyrase supercoiling inhibition assay (S. aureus); format: biochemical; settings: mean of two independent measurements ± SD
# T1 construct: purchased Inspiralis (Norwich, UK)
# T1 sequence (P20831 whole entry, looked up): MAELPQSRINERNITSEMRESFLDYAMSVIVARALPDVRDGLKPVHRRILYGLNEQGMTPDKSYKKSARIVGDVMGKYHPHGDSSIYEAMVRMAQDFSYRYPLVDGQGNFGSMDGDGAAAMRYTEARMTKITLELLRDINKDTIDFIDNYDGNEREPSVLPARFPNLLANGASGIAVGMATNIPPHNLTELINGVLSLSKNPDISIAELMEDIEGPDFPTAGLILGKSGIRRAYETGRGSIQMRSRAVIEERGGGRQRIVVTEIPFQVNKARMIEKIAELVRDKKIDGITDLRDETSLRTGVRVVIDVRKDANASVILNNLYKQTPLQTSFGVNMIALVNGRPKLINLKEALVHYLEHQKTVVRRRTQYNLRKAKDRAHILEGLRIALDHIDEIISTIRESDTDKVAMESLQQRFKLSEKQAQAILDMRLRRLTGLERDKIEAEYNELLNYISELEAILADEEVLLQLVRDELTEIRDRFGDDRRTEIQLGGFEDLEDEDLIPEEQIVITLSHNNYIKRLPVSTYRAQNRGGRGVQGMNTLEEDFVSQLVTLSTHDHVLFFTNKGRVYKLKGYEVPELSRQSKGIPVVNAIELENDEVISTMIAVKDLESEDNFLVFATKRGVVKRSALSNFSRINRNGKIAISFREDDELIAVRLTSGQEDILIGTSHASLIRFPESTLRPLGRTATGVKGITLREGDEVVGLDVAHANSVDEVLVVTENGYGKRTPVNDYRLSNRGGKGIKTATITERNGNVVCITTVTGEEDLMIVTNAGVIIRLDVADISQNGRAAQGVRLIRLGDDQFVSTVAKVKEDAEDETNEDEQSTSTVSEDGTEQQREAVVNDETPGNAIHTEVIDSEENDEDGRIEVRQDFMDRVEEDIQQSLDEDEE
# Protocol: We synthesized and biologically evaluated ten new compounds. We determined their inhibitory activity, expressed as IC50 values, on both Gram-positive S. aureus and Gram-negative E. coli bacterial enzymes (DNA gyrase and topo IV), respectively. The in vitro antibacterial activity, expressed as minimum inhibitory concentration (MIC), was determined against broad spectrum of bacteria, including Gram-positive (Staphylococcus aureus, methicillin-resistant Staphylococcus aureus, Streptococcus agalactiae, and Enterococcus faecalis) and Gram-negative strains (Escherichia coli, Salmonella alachua, Pseudomonas aeruginosa, and Klebsiella pneumoniae), enriched with various MRSA strains resistant to various antibiotics as well as E. coli strains with increased membrane permeability and lack of efflux pump, as well. Furthermore, the selectivity of compounds for bacterial enzyme compared to the orthologous human topoisomerase IIα was also considered. The in vitro safety profile was determined by cytotoxicity assessment on human umbilical vein endothelial cell lines (HUVEC) and HepG2 liver cancer cell lines.
# Determination of DNA gyrase and topoisomerase IV inhibitory activities
# To determine the IC50 values of the compounds, a Gyrase Supercoiling High Throughput Plate assay kit and a TopoIV Relaxation High Throughput Plate assay kit, commercially available from Inspiralis (Norwich, UK), were used for S. aureus and E. coli. The assays were performed on black streptavidin-coated 96-well microtiter plates (Thermo Scientific Pierce, Norwich, UK) and the wells were first […]
# BSA and 0.05% [v/v] Tween-20). Biotinylated oligonucleotide diluted with the wash buffer was then immobilized in each well and the excess was removed with the wash buffer. 1.5 U of the enzyme S. aureus or E. coli DNA gyrase (topoIV) was incubated together with 0.75 μg of relaxed (supercoiled) pNO1 plasmid as substrate in the presence of 3 μl inhibitor solution in 10% DMSO and 0.008% Tween-20 at 37°C for 30 min in a final reaction volume of 30 μl in the assay buffer (S. aureus DNA gyrase: 40 mM HEPES.KOH (pH 7.6), 10 mM magnesium acetate, 10 mM DTT, 2 mM ATP, 500 mM potassium glutamate and 0.05 mg/ml albumin; E. coli DNA gyrase: 35 mM Tris.HCl (pH 7.5), 24 […]
# mg/ml albumin; S. aureus topo IV: 50 mM Tris.HCl (7.5), 5 mM MgCl 2, 5 mM DTT, 1.5 mM ATP, 350 mM potassium glutamate and 0.05 mg/ml albumin; E. coli topo IV: 40 mM HEPES.KOH (pH 7.6), 100 mM potassium glutamate, 10 mM magnesium acetate, 10 mM DTT, 1 mM ATP and 50 μg/ml albumin). The reaction was stopped by adding the TF buffer (50 mM NaOAc (pH 4.7), 50 mM NaCl and 50 mM MgCl2) to allow triplex formation (biotin oligonucleotide plasmid) for another 30 min. Finally, the unbound plasmid was washed off using the TF buffer and the Promega Diamond dye was added to T10 buffer (10 mM Tris-HCl (pH 8.0), 1 mM EDTA) solution. After 15 min the solution […]
# Two inhibitor concentrations of 100 and 1 μM were used for pre-screening. The IC 50 values […]
# (IC50) was calculated by nonlinear regression-based fitting of the inhibition curves using the log [inhibitor] versus response-variable slope (four parameters) – symmetrical equation, in GraphPad Prism 6.0 software (GraphPad Software, CA, USA). The IC50 value represents the average of two independent measurements.
# The minimum inhibitory concentrations (MICs) were determined using the broth micro-dilution method in 96-well plate format according to the Clinical and Laboratory Standards Institute
# Human topoisomerase IIα = Human topoisomerase IIα (Homo sapiens, UniProt P11388); experiment: Human topoisomerase IIα residual activity; format: biochemical; settings: residual activity at 10 μM compound; mean ± SD, two independent experiments; read-out: Human topoisomerase IIα (%RA)
# Human topoisomerase IIα, sequence (P11388 whole entry): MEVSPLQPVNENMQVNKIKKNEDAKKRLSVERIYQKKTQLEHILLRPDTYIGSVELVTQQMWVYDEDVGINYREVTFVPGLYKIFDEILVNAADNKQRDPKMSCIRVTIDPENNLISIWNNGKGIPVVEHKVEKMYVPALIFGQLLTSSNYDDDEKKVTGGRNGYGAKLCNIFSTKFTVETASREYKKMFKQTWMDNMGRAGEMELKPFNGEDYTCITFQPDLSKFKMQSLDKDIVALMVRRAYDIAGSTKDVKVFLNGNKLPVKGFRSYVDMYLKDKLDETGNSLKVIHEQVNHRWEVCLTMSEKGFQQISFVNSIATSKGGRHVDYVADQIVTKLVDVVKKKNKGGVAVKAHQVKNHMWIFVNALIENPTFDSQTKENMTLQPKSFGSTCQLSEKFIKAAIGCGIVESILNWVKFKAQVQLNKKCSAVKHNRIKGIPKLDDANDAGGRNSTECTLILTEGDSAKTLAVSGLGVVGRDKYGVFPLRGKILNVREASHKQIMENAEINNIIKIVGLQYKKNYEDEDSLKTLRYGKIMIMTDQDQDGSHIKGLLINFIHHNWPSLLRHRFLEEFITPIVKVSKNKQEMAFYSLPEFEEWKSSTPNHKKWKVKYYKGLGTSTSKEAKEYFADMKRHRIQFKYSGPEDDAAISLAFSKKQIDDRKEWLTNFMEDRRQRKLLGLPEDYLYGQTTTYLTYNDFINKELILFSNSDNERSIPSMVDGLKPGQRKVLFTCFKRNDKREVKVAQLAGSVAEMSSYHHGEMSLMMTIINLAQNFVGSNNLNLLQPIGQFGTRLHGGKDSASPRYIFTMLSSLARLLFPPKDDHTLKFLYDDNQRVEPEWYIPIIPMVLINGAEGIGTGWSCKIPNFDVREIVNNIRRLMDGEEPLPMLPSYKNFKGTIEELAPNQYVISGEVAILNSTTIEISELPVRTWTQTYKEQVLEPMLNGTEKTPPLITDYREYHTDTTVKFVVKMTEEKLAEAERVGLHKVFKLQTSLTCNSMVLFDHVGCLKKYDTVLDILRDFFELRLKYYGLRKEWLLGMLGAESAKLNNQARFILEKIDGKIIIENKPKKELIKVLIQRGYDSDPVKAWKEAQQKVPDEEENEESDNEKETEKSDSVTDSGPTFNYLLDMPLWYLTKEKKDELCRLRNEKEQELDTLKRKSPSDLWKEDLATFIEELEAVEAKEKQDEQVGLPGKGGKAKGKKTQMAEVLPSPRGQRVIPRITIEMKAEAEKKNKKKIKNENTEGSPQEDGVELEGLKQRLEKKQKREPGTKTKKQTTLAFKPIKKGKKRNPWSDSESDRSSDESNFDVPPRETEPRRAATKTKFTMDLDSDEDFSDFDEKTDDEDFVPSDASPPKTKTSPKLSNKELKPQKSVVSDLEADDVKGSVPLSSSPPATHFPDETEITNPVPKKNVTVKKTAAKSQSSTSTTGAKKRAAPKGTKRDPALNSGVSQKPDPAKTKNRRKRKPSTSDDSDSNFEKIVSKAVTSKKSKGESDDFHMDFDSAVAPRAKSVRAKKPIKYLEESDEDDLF
# E. coli (ATCC 25922) = experiment: microbe, parasite or virus in culture; settings: Escherichia coli, ATCC25922, read-out: MIC E. coli (ATCC 25922)
# Protocol: (§1) The in vitro antibacterial activity, expressed as minimum inhibitory concentration (MIC), was determined against broad spectrum of bacteria, including Gram-positive (Staphylococcus aureus, methicillin-resistant Staphylococcus aureus, Streptococcus agalactiae, and Enterococcus faecalis) and Gram-negative strains (Escherichia coli, Salmonella alachua, Pseudomonas aeruginosa, and Klebsiella pneumoniae), enriched with various MRSA strains resistant to various antibiotics as well as E. coli strains with increased membrane permeability and lack of efflux pump, as well. […]
# (§2) The minimum inhibitory concentrations (MICs) were determined using the broth micro-dilution method in 96-well plate format according to the Clinical and Laboratory Standards Institute […]
# (§3) guidelines8 and European Committee on Antimicrobial Susceptibility Testing recommendations9. The bacterial suspension of the specific bacterial strain equivalent to the 0.5 McFarland turbidity standard was diluted with cation-adapted Mueller Hinton broth with TES (Thermo Fisher Scientific) to obtain a […]
# (§4) The compounds dissolved in DMSO and inoculum were mixed together and incubated for 20 h at 35 °C.
# E. coli D22 = experiment: microbe, parasite or virus in culture; settings: Escherichia coli
# Protocol: as §1, §2, §3, §4
# [1] = test system: E. coli N43 (CGSC no. 5583); experiment: microbe, parasite or virus in culture; settings: Escherichia coli
# Protocol: as §1, §2, §3, §4
# [2] = test system: Enterococcus faecalis DRK 057 (ATCC 29212); experiment: microbe, parasite or virus in culture
# Protocol: as §1, §2, §3, §4
# Klebsiella pneumoniae = experiment: microbe, parasite or virus in culture
# Protocol: as §1, §2, §3, §4
# MRSA (QA-11.7) = experiment: microbe, parasite or virus in culture; settings: Staphylococcus aureus, read-out: MIC MRSA (QA-11.7)
# Protocol: as §1, §2, §3, §4
# MRSA (QA-12.1) = experiment: microbe, parasite or virus in culture; settings: Staphylococcus aureus, read-out: MIC MRSA (QA-12.1)
# Protocol: as §1, §2, §3, §4
# [3] = test system: Pseudomonas aeruginosa RDK 184 (DSM 939); experiment: microbe, parasite or virus in culture
# Protocol: as §1, §2, §3, §4
# S. aureus (ATCC 29213) = experiment: microbe, parasite or virus in culture; settings: Staphylococcus aureus, ATCC29213, read-out: MIC S. aureus (ATCC 29213)
# Protocol: as §1, §2, §3, §4
# [4] = test system: Salmonella alachua RDK 030c (QA-1482/04); experiment: microbe, parasite or virus in culture
# Protocol: as §1, §2, §3, §4
# [5] = test system: Streptococcus agalactiae RDK 047 (QA-990/02); experiment: microbe, parasite or virus in culture
# Protocol: as §1, §2, §3, §4
# [6] = read-out: MIC E. coli N43 (CGSC no. 5583)
# [7] = read-out: MIC E. coli N43 (CGSC# 5583)
# [8] = ATCC29212, read-out: MIC E. faecalis DRK 057 (ATCC 29212)
# [9] = ATCC29212, read-out: MIC Enterococcus faecalis DRK 057 (ATCC 29212)
# [10] = read-out: MIC Klebsiella pneumoniae
# [11] = DSM939, read-out: MIC P. aeruginosa RDK 184 (DSM 939)
# [12] = DSM939, read-out: MIC Pseudomonas aeruginosa RDK 184 (DSM 939)
# [13] = read-out: MIC S. alachua RDK 030c (QA-1482/04)
# [14] = read-out: MIC Salmonella alachua RDK 030c (QA-1482/04)
# [15] = read-out: MIC S. agalactiae RDK 047 (QA-990/02)
# [16] = read-out: MIC Streptococcus agalactiae RDK 047 (QA-990/02)
SMILES,IC50 (S. aureus DNA gyrase),remaining activity at 10 µM (Human topoisomerase IIα),MIC (E. coli (ATCC 25922)),"MIC (E. coli D22; D22, read-out: MIC E. coli D2)","MIC (E. coli D22; D22, read-out: MIC E. coli D22)","MIC [1, 6]","MIC [1, 7]","MIC [2, 8]","MIC [2, 9]",MIC (Klebsiella pneumoniae; read-out: MIC K. pneumoniae),MIC (Klebsiella pneumoniae; [10]),MIC (MRSA (QA-11.7)),MIC (MRSA (QA-12.1)),"MIC [3, 11]","MIC [3, 12]",MIC (S. aureus (ATCC 29213)),"MIC [4, 13]","MIC [4, 14]","MIC [5, 15]","MIC [5, 16]"
COc1ccc2nccc(CCN3CCC(NCc4ccc(Cl)c(F)c4)CC3)c2n1 [Compound 4],6 ± 1 nM,99.2 ± 0.52%,4.66 µM and 2 µg/mL,0.583 µM,0.25 µg/mL,0.062 µg/mL,0.145 µM,4.66 µM,2 µg/mL,74.6 µM,32 µg/mL,0.072 µM and 0.031 µg/mL,0.072 µM and 0.031 µg/mL,149 µM,64 µg/mL,0.072 µM and 0.031 µg/mL,18.7 µM,8 µg/mL,2.33 µM,1 µg/mL
COc1ccc2nccc(CCN3CCC(NCc4ccc(Br)c(F)c4)CC3)c2n1 [Compound 5],7 nM,98.46 ± 0.45%,2.11 µM and 1 µg/mL,0.131 µM,0.062 µg/mL,0.031 µg/mL,0.065 µM,1.06 µM,0.5 µg/mL,33.8 µM,16 µg/mL,0.034 µM and 0.016 µg/mL,0.065 µM and 0.031 µg/mL,67.6 µM,32 µg/mL,0.017 µM and 0.008 µg/mL,8.45 µM,4 µg/mL,4.22 µM,2 µg/mL
COc1ccc2nccc(CCN3CCC(NCc4cc(F)c(Cl)c(F)c4)CC3)c2n1 [Compound 7],14 ± 2 nM,99.43 ± 0.57%,1.12 µM and 0.5 µg/mL,0.069 µM,0.031 µg/mL,0.062 µg/mL,0.139 µM,1.12 µM,0.5 µg/mL,17.9 µM,8 µg/mL,0.069 µM and 0.031 µg/mL,0.069 µM and 0.031 µg/mL,35.8 µM,16 µg/mL,0.018 µM and 0.008 µg/mL,4.47 µM,2 µg/mL,1.12 µM,0.5 µg/mL
COc1ccc2nccc(CCN3CCC(NCc4cc(F)c(Br)cc4F)CC3)c2n1 [Compound 9],9 ± 1 nM,98.83 ± 0.11%,2.04 µM and 1 µg/mL,0.509 µM,0.25 µg/mL,0.062 µg/mL,0.126 µM,1.02 µM,0.5 µg/mL,130 µM,64 µg/mL,0.033 µM and 0.016 µg/mL,0.033 µM and 0.016 µg/mL,260 µM,128 µg/mL,0.016 µM and 0.008 µg/mL,32.6 µM,16 µg/mL,0.509 µM,0.25 µg/mL
COc1ccc2nccc(CCN3CCC(NCc4ccc(Br)c(F)c4F)CC3)c2n1 [Compound 10],9 nM,98.11 ± 0.91%,8.14 µM and 4 µg/mL,1.02 µM,0.5 µg/mL,0.125 µg/mL,0.254 µM,4.07 µM,2 µg/mL,130 µM,64 µg/mL,0.126 µM and 0.062 µg/mL,0.126 µM and 0.062 µg/mL,> 260 µM,> 128 µg/mL,0.063 µM and 0.031 µg/mL,32.6 µM,16 µg/mL,4.07 µM,2 µg/mL
COc1ccc2nccc(CCN3CCC(NCc4ccc(I)c(F)c4F)CC3)c2n1 [Compound 11],9 ± 1 nM,94.9 ± 5.67%,3.71 µM and 2 µg/mL,0.23 µM,0.125 µg/mL,0.031 µg/mL,0.058 µM,0.929 µM,0.5 µg/mL,59.4 µM,32 µg/mL,0.058 µM and 0.031 µg/mL,0.115 µM and 0.062 µg/mL,119 µM,64 µg/mL,0.015 µM and 0.008 µg/mL,14.9 µM,8 µg/mL,0.929 µM,0.5 µg/mL
COc1ccc2nccc(CCN3CCC(NCc4ccc(Cl)nc4)CC3)c2n1 [Compound 12],283 ± 9 nM,99.7 ± 1.48%,77.7 µM and 32 µg/mL,9.71 µM,4 µg/mL,8 µg/mL,19.4 µM,77.7 µM,32 µg/mL,> 311 µM,> 128 µg/mL,2.43 µM and 1 µg/mL,4.86 µM and 2 µg/mL,> 311 µM,> 128 µg/mL,2.43 µM and 1 µg/mL,> 311 µM,> 128 µg/mL,155 µM,64 µg/mL
"O=c1ccc2ncc(=O)n3c2n1C[C@H]3CN1CCC(NCc2cc3c(cn2)OCCC3)CC1 [Gepotidacin, gepotidacin, reference compound]",–,–,2.23 µM and 1 µg/mL,0.279 µM,–,0.016 µg/mL,0.036 µM,–,–,17.8 µM,8 µg/mL,0.138 µM and 0.062 µg/mL,0.279 µM and 0.125 µg/mL,17.8 µM,8 µg/mL,0.279 µM,8.92 µM,4 µg/mL,–,–

# — paper PMC8436411 (ACS Medicinal Chemistry Letters, 2021)
